As a reminder, the inhibition is the share of the control response that was lost under treatment.

From ChEMBL document CHEMBL1159229, “In vitro anticomplementary activity of constituents from Morinda morindoides” (J Nat Prod, 1995) come the findings set out here.

For experiment [1], the species on record is Cavia porcellus. Briefly: Inhibition of guinea pig classical complement system assessed as hemolysis of sensitized sheep erythrocytes at 1000 uM.
For experiment [2], the species on record is Homo sapiens. Nature of the experiment: Inhibition of human plasma alternative complement system assessed as hemolysis of non-sensitized rabbit erythrocytes at 1000 uM. It is filed as cell-free.
The species named for experiment [3] is Cavia porcellus. Nature of the experiment: Inhibition of guinea pig classical complement system assessed as hemolysis of sensitized sheep erythrocytes.
Experiment [4] is filed under the species Homo sapiens. Briefly: Activation of human plasma alternative complement system assessed as hemolysis of non-sensitized rabbit erythrocytes at 1000 uM. The experiment is classed as cell-free.
The species entered for experiment [5] is Cavia porcellus. Nature of the experiment: Activation of guinea pig classical complement system assessed as hemolysis of sensitized sheep erythrocytes at 1000 uM.

For the compound `O=c1cc(-c2ccc(O)c(O)c2)oc2cc(O[C@@H]3O[C@H](CO)[C@@H](O)[C@H](O)[C@H]3O)cc(O)c12`, the inhibition in the experiment listed under Cavia porcellus [1] is 25.2%; in the experiment listed under Homo sapiens [2] it was 2%.
On to `C[C@@H]1O[C@@H](OC[C@H]2O[C@@H](Oc3c(-c4ccc(O)c(O)c4)oc4cc(O)cc(O)c4c3=O)[C@H](O)[C@@H](O)[C@@H]2O)[C@H](O)[C@H](O)[C@H]1O`, for which the inhibition in the experiment listed under Cavia porcellus [1] was 54.4%; in the experiment filed under Homo sapiens [2] it was 18%. Moreover, the Activity entry in the experiment listed under Cavia porcellus [3] is “Dose-dependent effect”.
With `C[C@@H]1O[C@@H](Oc2c(-c3ccc(O)cc3)oc3cc(O)cc(O)c3c2=O)[C@H](O)[C@H](O)[C@H]1O`, the inhibition is 5.6% in the experiment filed under Cavia porcellus [1] and 6.2% in the experiment listed under Homo sapiens [2].
Consider `C[C@@H]1O[C@@H](Oc2c(-c3ccc(O)c(O)c3)oc3cc(O)cc(O)c3c2=O)[C@H](O)[C@H](O)[C@H]1O`, for which the results for the inhibition in the experiment listed under Cavia porcellus [1] and in the experiment listed under Homo sapiens [2] were 56.2% and 13.5%, respectively. Also, the Activity entry in the experiment listed under Cavia porcellus [3] was “Dose-dependent effect”.
In the case of `COc1cc(O)c2c(=O)c(O)c(-c3ccc(OC)c(O)c3)oc2c1`, the inhibition in the experiment listed under Cavia porcellus [1] is 24.3%. Also, the Activity in the experiment listed under Homo sapiens [4] is 13.7%.
In the case of `C[C@@H]1O[C@@H](OC[C@H]2O[C@@H](Oc3c(-c4ccc(O)cc4)oc4cc(O)cc(O)c4c3=O)[C@H](O)[C@@H](O)[C@@H]2O)[C@H](O)[C@H](O)[C@H]1O`, the inhibition in the experiment listed under Cavia porcellus [1] turned out to be 19.2%. Besides, in the experiment listed under Homo sapiens [4], the Activity stood at 18.4%.
Turning to `O=C(/C=C/c1ccc(O)c(O)c1)O[C@H](Cc1ccc(O)c(O)c1)C(=O)O`, the inhibition in the experiment listed under Cavia porcellus [1] stood at 93.3%; in the experiment listed under Homo sapiens [2], 67.8%. Moreover, in the experiment listed under Cavia porcellus [3], the Activity result was “Dose-dependent effect”.
Turning to `COc1cc(-c2cc(=O)c3c(O)cc(O)cc3o2)ccc1O`, the Activity in the experiment listed under Cavia porcellus [5] worked out at 9%; in the experiment listed under Homo sapiens [4], 59%.
With `O=c1cc(-c2ccc(O)cc2)oc2cc(O[C@@H]3O[C@H](CO)[C@@H](O)[C@H](O)[C@H]3O)cc(O)c12`, the Activity in the experiment listed under Cavia porcellus [5] was determined as 2.34%; in the experiment filed under Homo sapiens [4], 2.4%.
The matching figures for `COc1cc(-c2cc(=O)c3c(O)cc(O[C@@H]4O[C@H](CO)[C@@H](O)[C@H](O)[C@H]4O[C@@H]4O[C@@H](C)[C@H](O)[C@@H](O)[C@H]4O)cc3o2)ccc1O`: 4.6% and 11.2%.
In the case of `O=c1c(O)c(-c2ccc(O)c(O)c2)oc2cc(O)cc(O)c12`, the inhibition in the experiment filed under Cavia porcellus [1] amounted to 52.5%; in the experiment listed under Homo sapiens [2], 24%. For the same compound, the Activity entry in the experiment filed under Cavia porcellus [3] is “Dose-dependent effect”.
